For data set [1], the system named is Hepatotoxicity.
In data set [2] the test system is Hepatotoxicity. This is another data set of the same source.
The test system of data set [3] is Hepatotoxicity. The source holds these as a separate data set.
Data set [4] has as its system Hepatotoxicity. This is another data set of the same source.
Data set [5] has as its system Hepatotoxicity. This is another data set of the same source.
The test system of data set [6] is Hepatotoxicity. The source holds these as a separate data set.
The subject of data set [7] is Hepatotoxicity. This is another data set of the same source.
Data set [8] deals with Hepatotoxicity. The source holds these as a separate data set.
For data set [9], the system named is Hepatotoxicity. The source holds these as a separate data set.
Data set [10] relates to Hepatotoxicity. This is another data set of the same source.
In data set [11] the test system is Hepatotoxicity. The source holds these as a separate data set.
Data set [12] has as its system Hepatotoxicity. This is another data set of the same source.
Data set [13] concerns Hepatotoxicity. This is another data set of the same source.
Data set [14] has as its system Hepatotoxicity. The source holds these as a separate data set.
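Throughout, for HepSE Combined Scores: combined hepatic side effect score as listed in the training data of the Drug Induced Liver Injury Prediction System (DILIps).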
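Throughout, for HepSE bilirubinemia: bilirubinemia hepatic side effect score drawn from the DILIps training data, a prediction system for drug-induced liver injury; call rule not given here.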
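Throughout, for HepSE cholecystitis: Cholecystitis-related hepatic side effect score drawn from the DILIps (drug-induced liver injury prediction) training data set; call rule not given here.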
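Throughout, for HepSE cholelithiasis: hepatic side effect score for cholelithiasis, drawn from the DILIps training data for predicting drug-induced liver injury; call rule not given here.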
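Throughout, for HepSE cirrhosis: cirrhosis hepatic side effect score taken from the DILIps (drug-induced liver injury prediction) training set; call rule not given here.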
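Throughout, for HepSE elevated liver function tests: hepatic side effect score for raised liver function tests, as recorded in the DILIps training set used for predicting drug-induced liver injury.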
Throughout, for HepSE hepatic failure: call rule not given here.
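Throughout, for HepSE hepatic necrosis: score of hepatic side effects for hepatic necrosis, drawn from the training data of DILIps, a prediction system for drug-induced liver injury; call rule not given here.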
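Throughout, for HepSE hepatitis: Hepatitis-related hepatic side effect score taken from the training data of DILIps, a prediction system for drug-induced liver injury; call rule not given here.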
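Throughout, for HepSE hepatomegaly: hepatic side effect score for hepatomegaly, taken from the training set of the DILIps drug-induced liver injury prediction system; call rule not given here.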
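Throughout, for HepSE jaundice: Jaundice-related hepatic side-effect score drawn from the training data of the DILIps (drug-induced liver injury prediction system); call rule not given here.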
Throughout, for HepSE liver disease: call rule not given here.
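Throughout, for HepSE liver fatty: hepatic side effect score for fatty liver, taken from the DILIps training set for predicting drug-induced liver injury; call rule not given here.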
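Throughout, for HepSE liver function tests abnormal: hepatic side effect score taken from the DILIps (drug-induced liver injury prediction system) training data, here covering abnormal liver function test findings.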

Turning to `CCCCC[C@H](O)/C=C/[C@H]1[C@H](O)CC(=O)[C@@H]1C/C=C\CCCC(=O)O` [DINOPROSTONE], the HepSE_liver disease in data set [1] turned out to be 0. Moreover, the “HepSE_elevated liver function tests” value in data set [2] is reported as 0. Also, the “HepSE_liver function tests abnormal” value in data set [3] came out at 0. The same compound showed a HepSE_hepatitis in [4] of 0. The compound also gave a HepSE_cholelithiasis in data set [5] of 0. The compound also had a HepSE_hepatomegaly in [6] of 0. For the same compound, in data set [7], the HepSE_jaundice was 0. This compound also had a HepSE_liver fatty in data set [8] of 0. In data set [9], the “HepSE_Combined Scores” value was found to be 0. Further, the HepSE_cirrhosis in [10] came out at 0. Further, the HepSE_bilirubinemia in data set [11] was determined as 0. In data set [12], this compound showed a HepSE_hepatic necrosis of 0. The compound also came in with a HepSE_cholecystitis in data set [13] of 0. The compound also yielded a HepSE_hepatic failure in data set [14] of 0.

In turn, `CNCC(O)c1ccc(OC(=O)C(C)(C)C)c(OC(=O)C(C)(C)C)c1` (stereo unspecified) [DIPIVEFRIN] showed a HepSE_liver disease in [1] of 0. Further, the “HepSE_elevated liver function tests” value in [2] is on record as 0. Further, the “HepSE_liver function tests abnormal” value in [3] turned out to be 0. In data set [4], this compound gave a HepSE_hepatitis of 0. For the same compound, in data set [5], the HepSE_cholelithiasis came out at 0. Moreover, the HepSE_hepatomegaly in data set [6] was 0. The compound also showed a HepSE_jaundice in [7] of 0. For the same compound, the HepSE_liver fatty in data set [8] worked out at 0. Besides, the “HepSE_Combined Scores” value in [9] was determined as 0. Moreover, in [10], the HepSE_cirrhosis is 0. In [11], the HepSE_bilirubinemia is given as 0. The compound also gave a HepSE_hepatic necrosis in [12] of 0. The compound further returned a HepSE_cholecystitis in [13] of 0. The HepSE_hepatic failure in data set [14] is listed as 0.

For the compound `CC(C)N(CCC(C(N)=O)(c1ccccc1)c1ccccn1)C(C)C` (stereo unspecified) [DISOPYRAMIDE], in data set [1], the HepSE_liver disease is listed as 0. Further, in [2], the “HepSE_elevated liver function tests” value was 0. Also, in [3], the “HepSE_liver function tests abnormal” value is 0. For the same compound, the HepSE_hepatitis in data set [4] is recorded as 0. This compound also came in with a HepSE_cholelithiasis in data set [5] of 0. The same compound had a HepSE_hepatomegaly in [6] of 0. For the same compound, the HepSE_jaundice in data set [7] came out at 1. In data set [8], this compound gave a HepSE_liver fatty of 0. Besides, the “HepSE_Combined Scores” value in data set [9] stood at 1. The HepSE_cirrhosis in [10] is reported as 0. Moreover, in data set [11], the HepSE_bilirubinemia was determined as 0. Besides, in [12], the HepSE_hepatic necrosis was found to be 0. Also, the HepSE_cholecystitis in data set [13] was determined as 0. The compound further yielded a HepSE_hepatic failure in data set [14] of 0.

`CC(CCc1ccc(O)cc1)NCCc1ccc(O)c(O)c1` (stereo unspecified) [DOBUTAMINE] registered a HepSE_liver disease in data set [1] of 0. Also, the “HepSE_elevated liver function tests” value in data set [2] was 0. The “HepSE_liver function tests abnormal” value in [3] stood at 0. In addition, the HepSE_hepatitis in data set [4] is given as 0. Besides, the HepSE_cholelithiasis in data set [5] is recorded as 0. Also, the HepSE_hepatomegaly in [6] is reported as 0. In addition, the HepSE_jaundice in data set [7] came out at 0. The HepSE_liver fatty in data set [8] was 0. The “HepSE_Combined Scores” value in data set [9] came to 0. In addition, the HepSE_cirrhosis in data set [10] was determined as 0. This compound came in with a HepSE_bilirubinemia in [11] of 0. In [12], this compound registered a HepSE_hepatic necrosis of 0. The same compound showed a HepSE_cholecystitis in data set [13] of 0. Moreover, the HepSE_hepatic failure in [14] is reported as 0.

Consider `CC(=O)O[C@@]12CO[C@@H]1C[C@H](O)[C@@]1(C)C(=O)[C@H](O)C3=C(C)[C@@H](OC(=O)[C@H](O)[C@@H](NC(=O)OC(C)(C)C)c4ccccc4)C[C@@](O)([C@@H](OC(=O)c4ccccc4)[C@H]21)C3(C)C.O.O.O` [DOCETAXEL], for which the HepSE_liver disease in data set [1] amounted to 0. For the same compound, the “HepSE_elevated liver function tests” value in data set [2] came out at 1. In [3], the “HepSE_liver function tests abnormal” value was 1. This compound came in with a HepSE_hepatitis in [4] of 1. In data set [5], this compound displayed a HepSE_cholelithiasis of 0. In data set [6], the HepSE_hepatomegaly came to 0. The same compound came in with a HepSE_jaundice in data set [7] of 1. This compound also gave a HepSE_liver fatty in data set [8] of 0. In addition, the “HepSE_Combined Scores” value in data set [9] is 6. Besides, the HepSE_cirrhosis in data set [10] turned out to be 0. Besides, the HepSE_bilirubinemia in data set [11] came to 1. This compound also showed a HepSE_hepatic necrosis in data set [12] of 0. The HepSE_cholecystitis in data set [13] was determined as 0. Also, the HepSE_hepatic failure in data set [14] stood at 1.

On to `CCCCCCCCCCCCCCCCCCCCCCO` [DOCOSANOL], for which, in [1], the HepSE_liver disease is listed as 0. Moreover, in data set [2], the “HepSE_elevated liver function tests” value is 0. In addition, the “HepSE_liver function tests abnormal” value in data set [3] is on record as 0. Also, the HepSE_hepatitis in data set [4] came out at 0. The HepSE_cholelithiasis in [5] was 0. The compound also gave a HepSE_hepatomegaly in [6] of 0. This compound also yielded a HepSE_jaundice in [7] of 0. The HepSE_liver fatty in [8] is listed as 0. Further, the “HepSE_Combined Scores” value in [9] amounted to 0. Moreover, the HepSE_cirrhosis in data set [10] is given as 0. Further, the HepSE_bilirubinemia in data set [11] is recorded as 0. Besides, the HepSE_hepatic necrosis in data set [12] amounted to 0. Moreover, in data set [13], the HepSE_cholecystitis amounted to 0. Besides, the HepSE_hepatic failure in [14] stood at 0.

In turn, `CN(CCOc1ccc(NS(C)(=O)=O)cc1)CCc1ccc(NS(C)(=O)=O)cc1` [DOFETILIDE] showed a HepSE_liver disease in data set [1] of 0. Besides, in [2], the “HepSE_elevated liver function tests” value was 0. Besides, in data set [3], the “HepSE_liver function tests abnormal” value stood at 0. In data set [4], this compound yielded a HepSE_hepatitis of 0. The same compound came in with a HepSE_cholelithiasis in [5] of 0. In data set [6], this compound came in with a HepSE_hepatomegaly of 0. Also, the HepSE_jaundice in data set [7] amounted to 0. Moreover, the HepSE_liver fatty in data set [8] was 0. The “HepSE_Combined Scores” value in data set [9] turned out to be 0. Also, in data set [10], the HepSE_cirrhosis came to 0. The same compound had a HepSE_bilirubinemia in data set [11] of 0. Further, the HepSE_hepatic necrosis in [12] is reported as 0. The compound further gave a HepSE_cholecystitis in data set [13] of 0. Also, the HepSE_hepatic failure in data set [14] stood at 0.

In data set [1], `O=C(O[C@@H]1C[C@@H]2C[C@H]3C[C@H](C1)N2CC3=O)c1c[nH]c2ccccc12` [DOLASETRON] returned a HepSE_liver disease of 1. Further, in data set [2], the “HepSE_elevated liver function tests” value amounted to 0. In addition, the “HepSE_liver function tests abnormal” value in data set [3] was found to be 0. The same compound came in with a HepSE_hepatitis in [4] of 0. Also, the HepSE_cholelithiasis in data set [5] was 0. In data set [6], the HepSE_hepatomegaly was determined as 0. In data set [7], this compound returned a HepSE_jaundice of 0. This compound also displayed a HepSE_liver fatty in data set [8] of 0. In addition, the “HepSE_Combined Scores” value in data set [9] came out at 2. This compound yielded a HepSE_cirrhosis in [10] of 0. The compound further came in with a HepSE_bilirubinemia in data set [11] of 1. Also, the HepSE_hepatic necrosis in data set [12] stood at 0. In addition, the HepSE_cholecystitis in data set [13] is reported as 0. The compound also had a HepSE_hepatic failure in data set [14] of 0.

In data set [1], `O=c1[nH]c2ccccc2n1CCCN1CCC(n2c(=O)[nH]c3cc(Cl)ccc32)CC1` [DOMPERIDONE] yielded a HepSE_liver disease of 0. In addition, the “HepSE_elevated liver function tests” value in [2] is 0. For the same compound, the “HepSE_liver function tests abnormal” value in data set [3] turned out to be 0. In addition, the HepSE_hepatitis in [4] was determined as 0. In [5], the HepSE_cholelithiasis is listed as 0. For the same compound, the HepSE_hepatomegaly in data set [6] is 0. The compound also gave a HepSE_jaundice in data set [7] of 0. In [8], this compound came in with a HepSE_liver fatty of 0. Besides, the “HepSE_Combined Scores” value in data set [9] stood at 0. The HepSE_cirrhosis in [10] was 0. The same compound displayed a HepSE_bilirubinemia in [11] of 0. The same compound registered a HepSE_hepatic necrosis in [12] of 0. In addition, in data set [13], the HepSE_cholecystitis was 0. The same compound had a HepSE_hepatic failure in [14] of 0.

For the origin of these results see ChEMBL document CHEMBL1909294, “Translating clinical findings into knowledge in drug safety evaluation--drug induced liver injury prediction system (DILIps)” (PLoS Comput Biol, 2011).
